For orientation: pIC50 means −log10 of the IC50, conventionally taken in molar units.

The source of these data is publication PMC6856721, “Discovery of a Novel DNA Gyrase-Targeting Antibiotic through the Chemical Perturbation of Streptomyces venezuelae Sporulation” (Cell Chemical Biology, 2019).

The test deals with T1, S. aureus topoisomerase IV (Staphylococcus aureus, UniProt P0C1S7+P0C1U9).
T1 construct: purchased Inspiralis Inc. SAD4001
Put plainly: S. aureus topoisomerase IV decatenation. It is filed as biochemical. Conditions: purified S. aureus topoisomerase IV; no activity up to; read-out: IC50, topoisomerase IV-catalyzed decatenation. As for the experimental part: 1 U of topoisomerase IV was incubated with 200 ng kDNA DNA in a 30 μl reaction at 37 C for 30 minutes under the following conditions: 50 mM HEPES-KOH (pH 7.6), 100 mM potassium glutamate, 10 mM magnesium acetate, 10 mM dithiothreitol, 1 mM ATP and 50 μg/mL BSA. Each reaction was stopped by the addition of 30 μl chloroform/iso-amyl alcohol (24:1) and 20 μl Stop Dye, before being loaded on a 1.0% TAE agarose gel. Gels run at 90 V for 2 hours.
As for E coli topoisomerase IV except assay conditions were: 50 mM Tris-HCl (7.5), 5 mM MgCl2, 5 mM DTT, 1.5 mM ATP, 350 mM potassium glutamate and 0.05 mg/mL BSA. Gels run at 80 V for 2 hours.

SMILES strings stand for the structures. pIC50: −log10 of the molar value. Some results are limits rather than exact numbers.

T1 sequence (P0C1U9 whole entry): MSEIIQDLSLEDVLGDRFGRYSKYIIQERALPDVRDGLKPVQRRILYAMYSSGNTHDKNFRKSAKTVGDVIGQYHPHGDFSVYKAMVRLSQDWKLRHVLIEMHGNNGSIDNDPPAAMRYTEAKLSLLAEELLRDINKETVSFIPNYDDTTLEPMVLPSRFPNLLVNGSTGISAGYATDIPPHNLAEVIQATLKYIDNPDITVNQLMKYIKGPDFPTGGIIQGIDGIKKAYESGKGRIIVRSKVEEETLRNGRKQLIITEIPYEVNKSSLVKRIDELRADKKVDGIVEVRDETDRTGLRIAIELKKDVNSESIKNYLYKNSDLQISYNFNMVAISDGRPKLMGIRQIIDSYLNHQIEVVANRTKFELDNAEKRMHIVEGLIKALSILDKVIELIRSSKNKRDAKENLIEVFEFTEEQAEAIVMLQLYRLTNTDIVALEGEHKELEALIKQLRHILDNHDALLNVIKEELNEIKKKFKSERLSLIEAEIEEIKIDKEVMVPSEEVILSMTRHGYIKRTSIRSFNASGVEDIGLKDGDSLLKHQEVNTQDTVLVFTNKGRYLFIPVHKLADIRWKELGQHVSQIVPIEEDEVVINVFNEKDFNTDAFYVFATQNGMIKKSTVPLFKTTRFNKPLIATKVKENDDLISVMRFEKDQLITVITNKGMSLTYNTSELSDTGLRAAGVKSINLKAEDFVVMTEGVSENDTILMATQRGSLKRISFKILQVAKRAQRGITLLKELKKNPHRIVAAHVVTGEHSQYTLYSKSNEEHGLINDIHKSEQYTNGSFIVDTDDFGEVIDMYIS
T1 sequence (P0C1S7 whole entry): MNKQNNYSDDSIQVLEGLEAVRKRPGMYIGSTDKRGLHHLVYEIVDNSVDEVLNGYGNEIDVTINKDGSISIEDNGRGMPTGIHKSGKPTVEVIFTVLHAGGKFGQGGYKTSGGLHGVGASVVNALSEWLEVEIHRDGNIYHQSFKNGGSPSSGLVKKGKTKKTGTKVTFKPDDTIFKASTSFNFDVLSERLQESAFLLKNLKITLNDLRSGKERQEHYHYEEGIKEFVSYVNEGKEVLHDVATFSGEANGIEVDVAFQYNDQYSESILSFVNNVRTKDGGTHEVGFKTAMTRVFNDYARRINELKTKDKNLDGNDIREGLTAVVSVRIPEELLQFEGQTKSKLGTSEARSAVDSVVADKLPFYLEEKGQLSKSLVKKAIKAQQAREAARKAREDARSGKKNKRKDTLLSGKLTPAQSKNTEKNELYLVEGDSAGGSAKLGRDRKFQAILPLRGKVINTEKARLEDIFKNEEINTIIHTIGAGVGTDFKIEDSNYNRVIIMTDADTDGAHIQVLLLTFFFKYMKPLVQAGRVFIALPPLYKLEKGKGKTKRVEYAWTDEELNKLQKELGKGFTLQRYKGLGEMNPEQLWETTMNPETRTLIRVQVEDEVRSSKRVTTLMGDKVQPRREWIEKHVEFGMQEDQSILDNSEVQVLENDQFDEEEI

For the compound `O=C(/C=C/c1cccc2cccnc12)NNC(=O)c1cc(-c2ccccc2)on1` [EN-7], the pIC50 was less than 4.00.
